Columns and labels:
ABUTH [1] = experiment: Pre-emergence herbicidal action against ABUTH; type: in vivo, Abutilon theophrasti; conditions: 80 g/ha, scored visually after 3 weeks vs untreated controls (100% = plants have died, 0% = like control plants)
How it was run: (§1)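 Sandy loam pots, seeds covered with soil, then surface-treated with WP or EC formulations at 600–800 l/ha water plus 0.2% wetting agent. Greenhouse, 3 weeks. Percent damage vs untreated controls.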

ALOMY [2] = experiment: Pre-emergence herbicidal action against ALOMY; type: in vivo, Alopecurus myosuroides; conditions: 80 g/ha, pre-emergence, scored visually after 3 weeks vs untreated controls (100% = plants have died, 0% = like control plants)
How it was run: as §1

AMARE [3] = experiment: Pre-emergence herbicidal action against AMARE; type: in vivo, Amaranthus retroflexus
How it was run: as §1

MATIN [4] = experiment: Pre-emergence herbicidal action against MATIN; type: in vivo, Matricaria inodora
How it was run: as §1

VIOTR [5] = experiment: Pre-emergence herbicidal action against VIOTR; type: in vivo, Viola tricolor
How it was run: as §1

ABUTH [6] = experiment: Post-emergence herbicidal action against ABUTH; type: in vivo, Abutilon theophrasti; conditions: visual assessment about 3 weeks after treatment vs untreated controls
How it was run: (§2)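 Herbicidal action is a visual percentage rating (0% = as untreated control, 100% = plants dead) made roughly 3 weeks after treatment. Plants were grown in sandy loam in the greenhouse and treated at the one-leaf stage, 2 to 3 weeks post-sowing. Treatment was a foliar spray of wettable-powder or emulsion-concentrate formulations at 600 to 800 l/ha water plus 0.2% wetting agent.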

ALOMY [7] = experiment: Post-emergence herbicidal action against ALOMY; type: in vivo, Alopecurus myosuroides; conditions: visual assessment about 3 weeks after treatment vs untreated controls
Description: (§3) Seeds of monocotyledonous and dicotyledonous weed and crop plants are laid out in sandy loam soil in wood-fiber pots, covered with soil and cultivated in a greenhouse under good growth conditions. 2 to 3 weeks after sowing, the test plants are treated at the one-leaf stage. The compounds of the invention, formulated in the form of wettable powders (WP) or as emulsion concentrates (EC), are then sprayed onto the green parts of the plants in the form of an aqueous suspension or emulsion at a water application rate equivalent to 600 to 800 l/ha, with addition of 0.2% wetting agent. After the test plants have been left to stand in the greenhouse under optimal growth conditions for about 3 weeks, the action of the preparations is assessed visually in comparison to untreated controls (herbicidal action in percent (%): 100% activity=the plants have died, 0% activity=like control plants). […] The tables below illustrate, in an illustrative manner, the post-emergence herbicidal action of the compounds of the invention, the herbicidal activity being stated in percent.

AMARE [8] = experiment: Post-emergence herbicidal action against AMARE; type: in vivo, Amaranthus retroflexus; conditions: 20 g/ha, visual assessment about 3 weeks after treatment, 100% = plants have died, 0% = like control plants
How it was run: as §2

ECHCG [9] = experiment: Post-emergence herbicidal action against ECHCG; type: in vivo, Echinochloa crus-galli; conditions: dosage 20 g/ha
How it was run: as §2

PHBPU = experiment: Post-emergence herbicidal action against PHBPU; type: in vivo, Pharbitis purpurea
How it was run: as §2

VERPE [10] = experiment: Post-emergence herbicidal action against VERPE; type: in vivo, Veronica persica; conditions: 20 g/ha
Description: as §3

VIOTR [11] = experiment: Post-emergence herbicidal action against VIOTR; type: in vivo, Viola tricolor
How it was run: as §2

VERPE [12] = experiment: Pre-emergence herbicidal action against VERPE; type: in vivo, Veronica persica; conditions: Veronica persica, 504 h
How it was run: as §1

AVEFA = experiment: Pre-emergence herbicidal action against AVEFA; type: in vivo, Avena fatua; conditions: 80 g/ha, pre-emergence
How it was run: as §1

ECHCG [13] = experiment: Pre-emergence herbicidal action against ECHCG; type: in vivo, Echinochloa crus-galli; conditions: 80 g/ha
How it was run: as §1

SETVI [14] = experiment: Pre-emergence herbicidal action against SETVI; type: in vivo, Setaria viridis; conditions: dosage 80 g/ha
How it was run: as §1

MATIN [15] = experiment: Post-emergence herbicidal action against MATIN; type: in vivo, Matricaria inodora; conditions: dosage 20 g/ha
Description: as §3

SETVI [16] = experiment: Post-emergence herbicidal action against SETVI; type: in vivo, Setaria viridis
How it was run: as §2

[17] = 80 g/ha, scored visually after 3 weeks vs untreated controls (100% = plants have died, 0% = like control plants)

COCCNC(=O)c1c(C(F)F)ccc(C(=O)Nc2nnnn2C)c1C [Example 1-347]
Pre-emergence action against ABUTH (herbicidal activity) (ABUTH [1]): 100% | Pre-emergence action against ALOMY (herbicidal activity) (ALOMY [2]): 80% | Pre-emergence action against AMARE in % (AMARE [3]; [17]): 100% | Pre-emergence action against MATIN in % (MATIN [4]; dosage 80 g/ha): 90% | Pre-emergence action against VIOTR in % (VIOTR [5]; dosage 80 g/ha): 80% | Post-emergence action against ABUTH in % (ABUTH [6]; dosage 5 g/ha): 80% | Post-emergence action against ABUTH in % (ABUTH [6]; dosage 20 g/ha): 90% | Post-emergence action against ALOMY in % (ALOMY [7]; dosage 20 g/ha): 80% | Post-emergence action at 20 g/ha against AMARE in % (AMARE [8]): 100% | Post-emergence action against ECHCG in % (ECHCG [9]): 90% | Post-emergence action against PHBPU in % (PHBPU; dosage 5 g/ha): 90% | Post-emergence action against PHBPU in % (PHBPU; dosage 20 g/ha): 90% | Post-emergence action against VERPE in % (VERPE [10]): 90% | Post-emergence action against VIOTR in % (VIOTR [11]; 5 g/ha): 80% | Post-emergence action against VIOTR in % (VIOTR [11]; 20 g/ha): 100%

COc1ccc(C(=O)Nc2nnnn2C)c(Cl)c1C(=O)NC1CC1 [Example 1-356]
pest or weed control at 80 g/ha (ABUTH [1]; Abutilon theophrasti, 504 h): 100% | pest or weed control at 80 g/ha (ALOMY [2]; Alopecurus myosuroides, 504 h): 100% | pest or weed control at 20 g/ha (AMARE [3]; Amaranthus retroflexus, 504 h, 20 g/ha, scored visually after 3 weeks vs untreated controls, 100% = plants have died, 0% = like control plants): 100% | pest or weed control at 80 g/ha (AMARE [3]; Amaranthus retroflexus, 504 h, 80 g/ha, scored visually after 3 weeks vs untreated controls, 100% = plants have died, 0% = like control plants): 100% | pest or weed control at 80 g/ha (MATIN [4]; Tripleurospermum inodorum, 504 h, dosage 80 g/ha): 100% | pest or weed control at 20 g/ha (VERPE [12]; dosage 20 g/ha): 100% | pest or weed control at 80 g/ha (VERPE [12]; dosage 80 g/ha): 100% | pest or weed control at 80 g/ha (VIOTR [5]; Viola tricolor, 504 h, dosage 80 g/ha): 100% | pest or weed control at 20 g/ha (ABUTH [6]; Abutilon theophrasti, 504 h, dosage 20 g/ha): 100% | pest or weed control at 20 g/ha (ALOMY [7]; Alopecurus myosuroides, 504 h, dosage 20 g/ha): 80% | pest or weed control at 20 g/ha (AMARE [8]; Amaranthus retroflexus, 504 h): 100% | pest or weed control at 20 g/ha (PHBPU; Ipomoea purpurea, 504 h, dosage 20 g/ha): 80% | pest or weed control at 20 g/ha (VERPE [10]; Veronica persica, 504 h): 90% | pest or weed control at 20 g/ha (VIOTR [11]; Viola tricolor, 504 h, 20 g/ha): 90%

CCn1nnnc1NC(=O)c1ccc(OC)c(C(=O)NC)c1Cl [Example 2-352]
Pre-emergence action against ABUTH (herbicidal activity) (ABUTH [1]): 100% | Pre-emergence action against ALOMY (herbicidal activity) (ALOMY [2]): 90% | Pre-emergence action against AMARE in % (AMARE [3]; 20 g/ha, scored visually after 3 weeks vs untreated controls, 100% = plants have died, 0% = like control plants): 100% | Pre-emergence action against AMARE in % (AMARE [3]; [17]): 100% | Pre-emergence action against AVEFA in % (AVEFA): 80% | Pre-emergence action against ECHCG in % (ECHCG [13]): 80% | Pre-emergence action against MATIN in % (MATIN [4]; dosage 20 g/ha): 90% | Pre-emergence action against MATIN in % (MATIN [4]; dosage 80 g/ha): 90% | Pre-emergence action against SETVI in % (SETVI [14]): 100% | Pre-emergence action against VIOTR in % (VIOTR [5]; dosage 20 g/ha): 80% | Pre-emergence action against VIOTR in % (VIOTR [5]; dosage 80 g/ha): 80% | Post-emergence action against ABUTH in % (ABUTH [6]; dosage 20 g/ha): 80% | Post-emergence action against ALOMY in % (ALOMY [7]; dosage 5 g/ha): 80% | Post-emergence action against ALOMY in % (ALOMY [7]; dosage 20 g/ha): 90% | Post-emergence action at 20 g/ha against AMARE in % (AMARE [8]): 100% | Post-emergence action against ECHCG in % (ECHCG [9]): 90% | Post-emergence action against MATIN in % (MATIN [15]): 80% | Post-emergence action against PHBPU in % (PHBPU; dosage 20 g/ha): 80% | Post-emergence action against SETVI in % (SETVI [16]; dosage 5 g/ha): 80% | Post-emergence action against SETVI in % (SETVI [16]; dosage 20 g/ha): 80% | Post-emergence action against VERPE in % (VERPE [10]): 90% | Post-emergence action against VIOTR in % (VIOTR [11]; 20 g/ha): 90%
